Results taken from patent US20230085307A1, “PYRIDAZINONE COMPOUND AND HERBICIDE” (NISSAN CHEMICAL CORPORATION, priority 2019, published 2023).

Columns and labels:
barnyard grass [1] = assay: Test Example 3: herbicidal effect by foliage application, Wagner pot (Table 18, symbol H); format: in vivo, barnyard grass (Echinochloa crus-galli); details: 320 g/ha
Procedure, shortened: (§1)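 Plants were sown in alluvial soil held under 0.1–0.5 cm standing water and grown 14 days in a greenhouse at 25–30 °C. An emulsifiable formulation, water-diluted to the set dose, was then sprayed onto the foliage, and effects were scored three weeks later using previously defined criteria.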

wild oat [2] = assay: Test Example 5: herbicidal effect by foliage application, plastic box (Table 20, symbol I); format: in vivo, wild oat (Avena fatua); details: 320 g/ha, foliage application after 14-day growth, evaluated three weeks after application
Procedure, shortened: (§2)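 Foliar spray test: emulsion formulation diluted in water to a set application rate, sprayed onto 14-day-old plants raised in diluvial soil at 25° C to 30° C under glass. Both herbicidal effect and crop effect rated visually three weeks later.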

redroot pigweed [3] = assay: Test Example 5: herbicidal effect by foliage application, plastic box (Table 20, symbol N); format: in vivo, redroot pigweed (Amaranthus retroflexus); details: 320 g/ha, foliage application after 14-day growth, evaluated three weeks after application
Procedure, shortened: as §2

barnyard grass [4] = assay: Test Example 4: herbicidal effect by soil treatment (Table 19, symbol H); format: in vivo, barnyard grass (Echinochloa crus-galli); details: amount of applied herbicide 320 g/ha
Procedure, shortened: (§3)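 Step 1: sow seeds in sterilized diluvial soil, cover ~1.5 cm. Step 2: spray diluted emulsion onto soil surface at predetermined rate. Step 3: greenhouse, 25–30° C, three weeks. Step 4: grade effect on each plant by earlier criteria.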

southern crabgrass [5] = assay: Test Example 5: herbicidal effect by foliage application, plastic box (Table 20, symbol F); format: in vivo, southern crabgrass (Digitaria ciliaris); details: 320 g/ha, foliage application after 14-day growth, evaluated three weeks after application
Procedure, shortened: as §2

Italian ryegrass [6] = assay: Test Example 4: herbicidal effect by soil treatment (Table 19, symbol K); format: in vivo, Italian ryegrass (Lolium multiflorum); details: amount of applied herbicide 320 g/ha
Procedure, shortened: as §3

chickweed [7] = assay: Test Example 4: herbicidal effect by soil treatment (Table 19, symbol P); format: in vivo, common chickweed (Stellaria media); details: amount of applied herbicide 320 g/ha
Text: (§4) [Test Example 4] Herbicidal Effect Test by Soil Treatment
(§5) Sterilized diluvial soil was placed in a plastic box having a length of 21 cm, a width of 13 cm, and a depth of 7 cm. The seeds of each of southern crabgrass, green foxtail, barnyard grass, wild oat, blackgrass, Italian ryegrass, windgrass, velvetleaf, redroot pigweed, lambsquarters, chickweed, false cleavers, persian speedwell, corn, soybean, rice, wheat, beet, and rapeseed were sowed in a spot-like manner and covered with the soil having a thickness of about 1.5 cm. Subsequently, the emulsion agent of the compound of the present invention prepared according to Formulation Example 2 was diluted with water so as to achieve a predetermined herbicide amount, and the diluted emulsion agent was uniformly applied to the surface of the soil with a small-sized spray. The plastic box was placed in a greenhouse at 25° C. to 30° C. for growth of the plants. Three weeks after the herbicide application, the effect of the herbicide on each plant was evaluated according to the criteria of Test Example 1.

lambsquarters [8] = assay: Test Example 4: herbicidal effect by soil treatment (Table 19, symbol O); format: in vivo, lambsquarters (Chenopodium album); details: amount of applied herbicide 320 g/ha
Procedure, shortened: as §3

southern crabgrass [9] = assay: Test Example 4: herbicidal effect by soil treatment (Table 19, symbol F); format: in vivo, southern crabgrass (Digitaria ciliaris); details: amount of applied herbicide 320 g/ha
Procedure, shortened: as §3

chickweed [10] = assay: Test Example 5: herbicidal effect by foliage application, plastic box (Table 20, symbol P); format: in vivo, common chickweed (Stellaria media); details: 320 g/ha, foliage application after 14-day growth, evaluated three weeks after application
Procedure, shortened: as §2

lambsquarters [11] = assay: Test Example 5: herbicidal effect by foliage application, plastic box (Table 20, symbol O); format: in vivo, lambsquarters (Chenopodium album); details: 320 g/ha, foliage application after 14-day growth, evaluated three weeks after application
Procedure, shortened: as §2

velvetleaf [12] = assay: Test Example 4: herbicidal effect by soil treatment (Table 19, symbol M); format: in vivo, velvetleaf (Abutilon theophrasti); details: amount of applied herbicide 320 g/ha
Procedure, shortened: as §3

Italian ryegrass [13] = assay: Test Example 5: herbicidal effect by foliage application, plastic box (Table 20, symbol K); format: in vivo, Italian ryegrass (Lolium multiflorum); details: 320 g/ha, foliage application after 14-day growth, evaluated three weeks after application
Procedure, shortened: as §2

windgrass [14] = assay: Test Example 4: herbicidal effect by soil treatment (Table 19, symbol L); format: in vivo, windgrass (Apera spica-venti); details: amount of applied herbicide 320 g/ha
Text: as §4, §5

blackgrass [15] = assay: Test Example 5: herbicidal effect by foliage application, plastic box (Table 20, symbol J); format: in vivo, blackgrass (Alopecurus myosuroides); details: 320 g/ha, foliage application after 14-day growth, evaluated three weeks after application
Procedure, shortened: as §2

windgrass [16] = assay: Test Example 5: herbicidal effect by foliage application, plastic box (Table 20, symbol L); format: in vivo, windgrass (Apera spica-venti); details: 320 g/ha, foliage application after 14-day growth, evaluated three weeks after application
Procedure, shortened: as §2

redroot pigweed [17] = assay: Test Example 4: herbicidal effect by soil treatment (Table 19, symbol N); format: in vivo, redroot pigweed (Amaranthus retroflexus); details: amount of applied herbicide 320 g/ha
Procedure, shortened: as §3

rice flat sedge = assay: Test Example 3: herbicidal effect by foliage application, Wagner pot (Table 18, symbol E); format: in vivo, rice flat sedge (Cyperus iria); details: 320 g/ha
Procedure, shortened: as §1

green foxtail [18] = assay: Test Example 4: herbicidal effect by soil treatment (Table 19, symbol G); format: in vivo, green foxtail (Setaria viridis); details: amount of applied herbicide 320 g/ha
Procedure, shortened: as §3

green foxtail [19] = assay: Test Example 5: herbicidal effect by foliage application, plastic box (Table 20, symbol G); format: in vivo, green foxtail (Setaria viridis); details: 320 g/ha, foliage application after 14-day growth, evaluated three weeks after application
Procedure, shortened: as §2

blackgrass [20] = assay: Test Example 4: herbicidal effect by soil treatment (Table 19, symbol J); format: in vivo, blackgrass (Alopecurus myosuroides); details: amount of applied herbicide 320 g/ha
Text: as §4, §5

wild oat [21] = assay: Test Example 4: herbicidal effect by soil treatment (Table 19, symbol I); format: in vivo, wild oat (Avena fatua); details: amount of applied herbicide 320 g/ha
Procedure, shortened: as §3

Chinese sprangletop = assay: Test Example 3: herbicidal effect by foliage application, Wagner pot (Table 18, symbol D); format: in vivo, chinese sprangletop (Leptochloa chinensis); details: 320 g/ha
Procedure, shortened: as §1

velvetleaf [22] = assay: Test Example 5: herbicidal effect by foliage application, plastic box (Table 20, symbol M); format: in vivo, velvetleaf (Abutilon theophrasti); details: 320 g/ha, foliage application after 14-day growth, evaluated three weeks after application
Procedure, shortened: as §2

barnyard grass [23] = assay: Test Example 5: herbicidal effect by foliage application, plastic box (Table 20, symbol H); format: in vivo, barnyard grass (Echinochloa crus-galli); details: 320 g/ha, foliage application after 14-day growth, evaluated three weeks after application
Procedure, shortened: as §2

persian speedwell = assay: Test Example 5: herbicidal effect by foliage application, plastic box (Table 20, symbol R); format: in vivo, Persian speedwell (Veronica persica); details: 320 g/ha, foliage application after 14-day growth, evaluated three weeks after application
Procedure, shortened: as §2

Compound	herbicidal effect on barnyard grass (H) (barnyard grass [1])	herbicidal effect on I: wild oat (evaluation grade 0-5) (wild oat [2])	herbicidal effect on N: redroot pigweed (evaluation grade 0-5) (redroot pigweed [3])	Herbicidal effect by soil treatment, H: barnyard grass (barnyard grass [4])	herbicidal effect on F: southern crabgrass (evaluation grade 0-5) (southern crabgrass [5])	Herbicidal effect by soil treatment, K: Italian ryegrass (Italian ryegrass [6])	Herbicidal effect by soil treatment, P: chickweed (chickweed [7])	Herbicidal effect by soil treatment, O: lambsquarters (lambsquarters [8])	Herbicidal effect by soil treatment, F: southern crabgrass (southern crabgrass [9])	herbicidal effect on P: chickweed (evaluation grade 0-5) (chickweed [10])	herbicidal effect on O: lambsquarters (evaluation grade 0-5) (lambsquarters [11])	Herbicidal effect by soil treatment, M: velvetleaf (velvetleaf [12])	herbicidal effect on K: Italian ryegrass (evaluation grade 0-5) (Italian ryegrass [13])	Herbicidal effect by soil treatment, L: windgrass (windgrass [14])	herbicidal effect on J: blackgrass (evaluation grade 0-5) (blackgrass [15])	herbicidal effect on L: windgrass (evaluation grade 0-5) (windgrass [16])	Herbicidal effect by soil treatment, N: redroot pigweed (redroot pigweed [17])	herbicidal effect on rice flat sedge (E) (rice flat sedge)	Herbicidal effect by soil treatment, G: green foxtail (green foxtail [18])	herbicidal effect on G: green foxtail (evaluation grade 0-5) (green foxtail [19])	further results
Cc1nn(C)c(=O)c(-c2c(-c3ccccc3F)sc3c(Cl)cccc23)c1O [4-058]	4 (Herbicidal rate of 70% or more and less than 90%)	0 (Herbicidal rate of 5% or less (almost no effect))	3 (Herbicidal rate of 40% or more and less than 70%)	0 (Herbicidal rate of 5% or less (almost no effect))	2 (Herbicidal rate of 20% or more and less than 40%)	2 (Herbicidal rate of 20% or more and less than 40%)	5 (Herbicidal rate of 90% or more (almost completely withered))	0 (Herbicidal rate of 5% or less (almost no effect))	0 (Herbicidal rate of 5% or less (almost no effect))	5 (Herbicidal rate of 90% or more (almost completely withered))	2 (Herbicidal rate of 20% or more and less than 40%)	0 (Herbicidal rate of 5% or less (almost no effect))	3 (Herbicidal rate of 40% or more and less than 70%)	0 (Herbicidal rate of 5% or less (almost no effect))	0 (Herbicidal rate of 5% or less (almost no effect))	4 (Herbicidal rate of 70% or more and less than 90%)	0 (Herbicidal rate of 5% or less (almost no effect))	3 (Herbicidal rate of 40% or more and less than 70%)	0 (Herbicidal rate of 5% or less (almost no effect))	0 (Herbicidal rate of 5% or less (almost no effect))	Herbicidal effect by soil treatment, J: blackgrass (blackgrass [20]): 0 (Herbicidal rate of 5% or less (almost no effect)); Herbicidal effect by soil treatment, I: wild oat (wild oat [21]): 0 (Herbicidal rate of 5% or less (almost no effect)); herbicidal effect on Chinese sprangletop (D) (Chinese sprangletop): 3 (Herbicidal rate of 40% or more and less than 70%); herbicidal effect on M: velvetleaf (evaluation grade 0-5) (velvetleaf [22]): 1 (Herbicidal rate of 5% or more and less than 20%); herbicidal effect on H: barnyard grass (evaluation grade 0-5) (barnyard grass [23]): 0 (Herbicidal rate of 5% or less (almost no effect)); herbicidal effect on R: persian speedwell (evaluation grade 0-5) (persian speedwell): 5 (Herbicidal rate of 90% or more (almost completely withered))
CCOc1ccccc1-c1sc2c(Cl)cccc2c1-c1c(O)c(C)nn(C)c1=O [4-025]	5 (Herbicidal rate of 90% or more (almost completely withered))	0 (Herbicidal rate of 5% or less (almost no effect))	4 (Herbicidal rate of 70% or more and less than 90%)	3 (Herbicidal rate of 40% or more and less than 70%)	3 (Herbicidal rate of 40% or more and less than 70%)	0 (Herbicidal rate of 5% or less (almost no effect))	0 (Herbicidal rate of 5% or less (almost no effect))	1 (Herbicidal rate of 5% or more and less than 20%)	2 (Herbicidal rate of 20% or more and less than 40%)	4 (Herbicidal rate of 70% or more and less than 90%)	3 (Herbicidal rate of 40% or more and less than 70%)	2 (Herbicidal rate of 20% or more and less than 40%)	3 (Herbicidal rate of 40% or more and less than 70%)	0 (Herbicidal rate of 5% or less (almost no effect))	4 (Herbicidal rate of 70% or more and less than 90%)	5 (Herbicidal rate of 90% or more (almost completely withered))	3 (Herbicidal rate of 40% or more and less than 70%)	5 (Herbicidal rate of 90% or more (almost completely withered))	4 (Herbicidal rate of 70% or more and less than 90%)	5 (Herbicidal rate of 90% or more (almost completely withered))	Herbicidal effect by soil treatment, J: blackgrass (blackgrass [20]): 1 (Herbicidal rate of 5% or more and less than 20%); Herbicidal effect by soil treatment, I: wild oat (wild oat [21]): 0 (Herbicidal rate of 5% or less (almost no effect)); herbicidal effect on Chinese sprangletop (D) (Chinese sprangletop): 3 (Herbicidal rate of 40% or more and less than 70%); herbicidal effect on M: velvetleaf (evaluation grade 0-5) (velvetleaf [22]): 4 (Herbicidal rate of 70% or more and less than 90%); herbicidal effect on H: barnyard grass (evaluation grade 0-5) (barnyard grass [23]): 5 (Herbicidal rate of 90% or more (almost completely withered)); herbicidal effect on R: persian speedwell (evaluation grade 0-5) (persian speedwell): 5 (Herbicidal rate of 90% or more (almost completely withered))
